Legend:
Type in all cases: in vivo
[1] = test system: green foxtail (Setaria viridis, SETVI); assay: Pre-emerge test, greenhouse herbicide activity screening; settings: pre-emerge, rated 14 days after application, 0 = no damage, 100 = complete death
Outline: (§1)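 Fourteen days after spraying, crop and weed injury was graded visually from 0, no effect, to 100, every plant dead. Test substances were dissolved in acetone and applied at 15–1000 g ai/ha with a flat-fan nozzle. Application was either pre-emergence, one day after sowing, or post-emergence at the 2–3 leaf stage.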

[2] = test system: sicklepod (Cassia obtusifolia, CASOB); assay: as above; settings: pre-emerge, rated 14 days after application, 0 = no damage, 100 = complete death
Outline: as §1

[3] = test system: johnsongrass (Sorghum halepense, SORHA); assay: as above; settings: pre-emerge, rated 14 days after application, 0 = no damage, 100 = complete death
Outline: as §1

[4] = test system: barnyardgrass (Echinochloa crus-galli, ECHCG); assay: as above; settings: pre-emerge, rated 14 days after application, 0 = no damage, 100 = complete death
Outline: as §1

[5] = test system: common ragweed (Ambrosia artemisizfolia L., AMBEL); assay: as above; settings: pre-emerge, rated 14 days after application, 0 = no damage, 100 = complete death
Outline: as §1

[6] = test system: ivyleaf morningglory (Ipomoea hederacea, IPOHE); assay: as above; settings: pre-emerge, rated 14 days after application, 0 = no damage, 100 = complete death
Outline: as §1

[7] = test system: velvetleaf (Abutilon theophrasti, ABUTH); assay: as above; settings: pre-emerge, rated 14 days after application, 0 = no damage, 100 = complete death
Outline: as §1

[8] = test system: large crabgrass (Digitaria sanguinalis, DIGSA); assay: as above; settings: pre-emerge, rated 14 days after application, 0 = no damage, 100 = complete death
Outline: as §1

[9] = test system: lambsquarters (Chenopodium album, CHEAL); assay: as above; settings: pre-emerge, rated 14 days after application, 0 = no damage, 100 = complete death
Outline: as §1

[10] = test system: upland rice (Oryza sp., var. Tebonnet, RICE); assay: Pre-emerge test, crop safety; settings: pre-emerge, rated 14 days after application, 0 = no damage, 100 = complete death
Outline: (§2)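 Herbicidal damage is scored 0 (none) to 100 (complete plant death) two weeks after a simulated field spray. Rates span 15–1000 g ai/ha, delivered in acetone at 187 l/ha. For post-emergence treatments, plants have 2–3 leaves and the spray carries 0.25% v/v non-ionic surfactant.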

[11] = test system: field corn (Zea mays L., var. Dekalb 535, CORN); assay: Pre-emerge test, crop safety; settings: pre-emerge, rated 14 days after application, 0 = no damage, 100 = complete death
Outline: as §2

[12] = test system: redroot pigweed (Amaranthus retroflexus, AMARE); assay: Pre-emerge test, greenhouse herbicide activity screening; settings: pre-emerge, rated 14 days after application, 0 = no damage, 100 = complete death
Outline: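 Compounds in acetone were track-sprayed at 15-1000 g ai/ha (187 l/ha) on sandy loam pots: pre-emerge one day after seeding, post-emerge at 2-3 leaf stage with 0.25% v/v non-ionic surfactant. Phytotoxicity was rated 14 days later on a 0 (no damage) to 100 (complete death) scale.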

[13] = test system: green foxtail (Setaria viridis, SETVI); assay: Post-emerge test, greenhouse herbicide activity screening; settings: phytotoxicity rating 0-100 (0 no damage, 100 complete death), 14 days after application
Outline: (§3)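 Compounds in acetone were track-sprayed at 187 l/ha, 15–1000 g ai/ha, onto sandy loam pots. Pre-emerge seeds were sown one day before spraying, with surface watering afterwards. Post-emerge plants were at the 2–3 leaf stage and sprayed with 0.25% v/v non-ionic surfactant. Injury was rated 0–100 at 14 days.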

[14] = test system: sicklepod (Cassia obtusifolia, CASOB); assay: as above; settings: phytotoxicity rating 0-100 (0 no damage, 100 complete death), 14 days after application
Outline: as §3

[15] = test system: johnsongrass (Sorghum halepense, SORHA); assay: as above; settings: phytotoxicity rating 0-100 (0 no damage, 100 complete death), 14 days after application
Outline: as §3

[16] = test system: barnyardgrass (Echinochloa crus-galli, ECHCG); assay: as above; settings: phytotoxicity rating 0-100 (0 no damage, 100 complete death), 14 days after application
Outline: as §3

[17] = test system: common ragweed (Ambrosia artemisizfolia L., AMBEL); assay: as above; settings: phytotoxicity rating 0-100 (0 no damage, 100 complete death), 14 days after application
Outline: as §3

[18] = test system: ivyleaf morningglory (Ipomoea hederacea, IPOHE); assay: as above; settings: phytotoxicity rating 0-100 (0 no damage, 100 complete death), 14 days after application
Outline: as §3

[19] = test system: velvetleaf (Abutilon theophrasti, ABUTH); assay: as above; settings: phytotoxicity rating 0-100 (0 no damage, 100 complete death), 14 days after application
Outline: as §3

[20] = test system: large crabgrass (Digitaria sanguinalis, DIGSA); assay: as above; settings: phytotoxicity rating 0-100 (0 no damage, 100 complete death), 14 days after application
Outline: as §3

[21] = test system: redroot pigweed (Amaranthus retroflexus, AMARE); assay: as above; settings: phytotoxicity rating 0-100 (0 no damage, 100 complete death), 14 days after application
Outline: as §3

[22] = test system: lambsquarters (Chenopodium album, CHEAL); assay: as above; settings: phytotoxicity rating 0-100 (0 no damage, 100 complete death), 14 days after application
Outline: as §3

[23] = test system: upland rice (Oryza sp., var. Tebonnet, RICE); assay: Post-emerge test, crop safety; settings: phytotoxicity rating 0-100 (0 no damage, 100 complete death), 14 days after application
Outline: as §1

[24] = test system: field corn (Zea mays L., var. Dekalb 535, CORN); assay: Post-emerge test, crop safety; settings: phytotoxicity rating 0-100 (0 no damage, 100 complete death), 14 days after application
Outline: as §1

COc1c(Cl)cc(F)c(-n2c(=O)cc(C(F)(F)F)n(C)c2=O)c1NS(=O)(=O)c1ccc(C)cc1 [2-26]
90: Pre-emerge Herbicidal Activity CHEAL (phytotoxicity rating, scale 0-100) ([9]; 250 g ai/ha)
0: Pre-emerge Herbicidal Activity SETVI (phytotoxicity rating, scale 0-100) ([1]; 63 g ai/ha) | Pre-emerge Herbicidal Activity SETVI (phytotoxicity rating, scale 0-100) ([1]; 250 g ai/ha) | Pre-emerge Herbicidal Activity CASOB (phytotoxicity rating, scale 0-100) ([2]; 63 g ai/ha) | Pre-emerge Herbicidal Activity CASOB (phytotoxicity rating, scale 0-100) ([2]; 250 g ai/ha) | Pre-emerge Herbicidal Activity SORHA (phytotoxicity rating, scale 0-100) ([3]; 63 g ai/ha) | Pre-emerge Herbicidal Activity SORHA (phytotoxicity rating, scale 0-100) ([3]; 250 g ai/ha) | Pre-emerge Herbicidal Activity ECHCG (phytotoxicity rating, scale 0-100) ([4]; 63 g ai/ha) | Pre-emerge Herbicidal Activity ECHCG (phytotoxicity rating, scale 0-100) ([4]; 250 g ai/ha) | Pre-emerge Herbicidal Activity AMBEL (phytotoxicity rating, scale 0-100) ([5]; 63 g ai/ha) | Pre-emerge Herbicidal Activity AMBEL (phytotoxicity rating, scale 0-100) ([5]; 250 g ai/ha) | Pre-emerge Herbicidal Activity IPOHE (phytotoxicity rating, scale 0-100) ([6]; 63 g ai/ha) | Pre-emerge Herbicidal Activity IPOHE (phytotoxicity rating, scale 0-100) ([6]; 250 g ai/ha) | Pre-emerge Herbicidal Activity ABUTH (phytotoxicity rating, scale 0-100) ([7]; 63 g ai/ha) | Pre-emerge Herbicidal Activity ABUTH (phytotoxicity rating, scale 0-100) ([7]; 250 g ai/ha) | Pre-emerge Herbicidal Activity DIGSA (phytotoxicity rating, scale 0-100) ([8]; 63 g ai/ha) | Pre-emerge Herbicidal Activity DIGSA (phytotoxicity rating, scale 0-100) ([8]; 250 g ai/ha) | Pre-emerge Herbicidal Activity CHEAL (phytotoxicity rating, scale 0-100) ([9]; 63 g ai/ha) | Pre-emerge crop damage RICE (phytotoxicity rating, scale 0-100) ([10]; 63 g ai/ha) | Pre-emerge crop damage RICE (phytotoxicity rating, scale 0-100) ([10]; 250 g ai/ha) | Pre-emerge crop damage CORN (phytotoxicity rating, scale 0-100) ([11]; 63 g ai/ha) | Pre-emerge crop damage CORN (phytotoxicity rating, scale 0-100) ([11]; 250 g ai/ha) | Pre-emerge Herbicidal Activity AMARE (phytotoxicity rating, scale 0-100) ([12]; 63 g ai/ha) | Post-emerge Herbicidal Activity SETVI ([13]; 63 g ai/ha) | Post-emerge Herbicidal Activity SETVI ([13]; 250 g ai/ha) | Post-emerge Herbicidal Activity CASOB ([14]; 63 g ai/ha) | Post-emerge Herbicidal Activity CASOB ([14]; 250 g ai/ha) | Post-emerge Herbicidal Activity SORHA ([15]; 63 g ai/ha) | Post-emerge Herbicidal Activity SORHA ([15]; 250 g ai/ha) | Post-emerge Herbicidal Activity ECHCG ([16]; 63 g ai/ha) | Post-emerge Herbicidal Activity ECHCG ([16]; 250 g ai/ha) | Post-emerge Herbicidal Activity AMBEL ([17]; 63 g ai/ha) | Post-emerge Herbicidal Activity AMBEL ([17]; 250 g ai/ha) | Post-emerge Herbicidal Activity IPOHE ([18]; 63 g ai/ha) | Post-emerge Herbicidal Activity ABUTH ([19]; 63 g ai/ha) | Post-emerge Herbicidal Activity DIGSA ([20]; 63 g ai/ha) | Post-emerge Herbicidal Activity DIGSA ([20]; 250 g ai/ha) | Post-emerge Herbicidal Activity AMARE ([21]; 63 g ai/ha) | Post-emerge Herbicidal Activity CHEAL ([22]; 63 g ai/ha) | Post-emerge Herbicidal Activity RICE (crop damage) ([23]; 63 g ai/ha) | Post-emerge Herbicidal Activity RICE (crop damage) ([23]; 250 g ai/ha) | Post-emerge Herbicidal Activity CORN (crop damage) ([24]; 63 g ai/ha) | Post-emerge Herbicidal Activity CORN (crop damage) ([24]; 250 g ai/ha)
30: Post-emerge Herbicidal Activity IPOHE ([18]; 250 g ai/ha)
20: Post-emerge Herbicidal Activity AMARE ([21]; 250 g ai/ha) | Post-emerge Herbicidal Activity CHEAL ([22]; 250 g ai/ha)
40: Post-emerge Herbicidal Activity ABUTH ([19]; 250 g ai/ha)
80: Pre-emerge Herbicidal Activity AMARE (phytotoxicity rating, scale 0-100) ([12]; 250 g ai/ha)

Source: patent US6355799B1, “Substituted benzene compounds, process for their preparation, and herbicidal and defoliant compositions containing them” (ISK Americas Incorporated, priority 1997, dated 2002)
